# In ChEMBL document CHEMBL1201862, “PubChem BioAssay data set” (2004):
#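 48-hour exposure; five concentrations; linearly interpolated endpoints. GI50 = concentration required for 50% inhibition of growth.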 Activity calls are given as the source filed them. No stated cut-off is given here; in the data, active = GI50 up to about 1.1 µM and inactive = higher.
# What was measured:
# Experiment in all cases: inhibition of tumour cell growth, NCI panel, 48 h
# A498 = test system: A498
# HCT-116 = test system: HCT-116
# NCI-H522 = test system: NCI-H522
# IGROV-1 = test system: IGROV-1
# 786-0 = test system: 786-0
# U-251 = test system: U-251
# HT-29 = test system: HT-29
# UACC-257 = test system: UACC-257
# EKVX = test system: EKVX
# SR = test system: SR
# HCC 2998 = test system: HCC 2998
# OVCAR-4 = test system: OVCAR-4
# NCI-H226 = test system: NCI-H226
# DU-145 = test system: DU-145
# ACHN = test system: ACHN
# OVCAR-3 = test system: OVCAR-3
# PC-3 = test system: PC-3
# OVCAR-8 = test system: OVCAR-8
# SF-539 = test system: SF-539
# LOX IMVI = test system: LOX IMVI
SMILES,GI50 (A498),GI50 (HCT-116),GI50 (NCI-H522),GI50 (IGROV-1),GI50 (786-0),GI50 (U-251),GI50 (HT-29),GI50 (UACC-257),GI50 (EKVX),GI50 (SR),GI50 (HCC 2998),GI50 (OVCAR-4),GI50 (NCI-H226),GI50 (DU-145),GI50 (ACHN),GI50 (OVCAR-3),GI50 (PC-3),GI50 (OVCAR-8),GI50 (SF-539),GI50 (LOX IMVI)
C[N+]1([O-])C2CCC1CC(OC(=O)C(CO)c1ccccc1)C2 (stereo not given),> 100 µM (inactive),> 100 µM (inactive),> 100 µM (inactive),> 100 µM (inactive),> 100 µM (inactive),> 100 µM (inactive),> 100 µM (inactive),> 100 µM (inactive),> 100 µM (inactive),> 36.6 µM (inactive),> 100 µM (inactive),> 100 µM (inactive),> 100 µM (inactive),> 100 µM (inactive),> 100 µM (inactive),> 100 µM (inactive),> 100 µM (inactive),> 100 µM (inactive),> 100 µM (inactive),> 100 µM (inactive)
Clc1ccc2nc3c(c(-c4ccccc4)nn3-c3ccccc3)c(-c3ccccc3)c2c1,–,> 100 µM (inactive),> 100 µM (inactive),> 100 µM (inactive),> 100 µM (inactive),> 100 µM (inactive),> 100 µM (inactive),–,> 100 µM (inactive),> 100 µM (inactive),> 100 µM (inactive),> 100 µM (inactive),> 100 µM (inactive),> 100 µM (inactive),> 100 µM (inactive),> 100 µM (inactive),> 100 µM (inactive),> 100 µM (inactive),–,> 100 µM (inactive)
CC(C)(C)OC(=O)N1C(OP(=O)(Oc2ccccc2)Oc2ccccc2)=CSc2ccccc21,–,30.2 µM (inactive),27.1 µM (inactive),38.1 µM (inactive),45.5 µM (inactive),32.9 µM (inactive),50.2 µM (inactive),31.6 µM (inactive),31.8 µM (inactive),31.8 µM (inactive),39.4 µM (inactive),34 µM (inactive),80.2 µM (inactive),89.9 µM (inactive),27.5 µM (inactive),31.3 µM (inactive),47.8 µM (inactive),59 µM (inactive),72.8 µM (inactive),47.2 µM (inactive)
Nc1ncnc2c(C3OC(CO)C(O)C3O)c[nH]c12 (stereo not given),0.0213 µM (active),0.01 µM (active),0.00614 µM (active),0.00422 µM (active),0.00317 µM (active),0.00847 µM (active),0.0056 µM (active),0.0185 µM (active),0.0144 µM (active),0.00298 µM (active),0.00621 µM (active),0.0146 µM (active),< 0.0138 µM (active),0.006 µM (active),0.00125 µM (active),–,0.00515 µM (active),0.00227 µM (active),0.00813 µM (active),0.00282 µM (active)
CC[C@]1(Cc2ccc(OC)c(OC)c2)C=[N+]([O-])O[C@H](OC2CCCC2(c2ccccc2)c2ccccc2)[C@@H]1OC(C)=O (stereo not given in full),–,2.08 µM (inactive),2.83 µM (inactive),2.08 µM (inactive),1.6 µM (inactive),7.94 µM (inactive),1.98 µM (inactive),4.61 µM (inactive),5.89 µM (inactive),2.79 µM (inactive),2.74 µM (inactive),4.84 µM (inactive),–,3.03 µM (inactive),2.4 µM (inactive),1.65 µM (inactive),4.66 µM (inactive),2.67 µM (inactive),–,2 µM (inactive)
C/C(=N\Nc1nc2ccccc2s1)c1ccncn1,> 100 µM (inactive),0.532 µM (active),0.12 µM (active),0.485 µM (active),0.719 µM (active),1.3 µM (inactive),0.0311 µM (active),0.719 µM (active),0.245 µM (active),0.641 µM (active),4.88 µM (inactive),2.52 µM (inactive),0.14 µM (active),3.54 µM (inactive),0.0673 µM (active),0.366 µM (active),2.06 µM (inactive),0.286 µM (active),1.39 µM (inactive),–
CC(C)(C)OC(=O)C1CC[C@@H](CC(=O)Oc2ccc([N+](=O)[O-])cc2)N1 (stereo not given in full),> 100 µM (inactive),> 100 µM (inactive),> 100 µM (inactive),> 100 µM (inactive),> 100 µM (inactive),> 100 µM (inactive),–,> 100 µM (inactive),> 100 µM (inactive),59 µM (inactive),> 100 µM (inactive),> 100 µM (inactive),> 100 µM (inactive),> 100 µM (inactive),> 100 µM (inactive),> 100 µM (inactive),> 100 µM (inactive),> 100 µM (inactive),> 100 µM (inactive),> 100 µM (inactive)
